Values joined by “and” are separate entries in the source; they are usually repeats but may differ in a detail not shown here. Equal values may be shown once.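 Five concentrations, 48 hours, 96-well plates. At the GI50, growth is halved. The concentration for full growth arrest is given as TGI.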
How the values were obtained:
Assay in all cases: NCI tumour cell line growth inhibition, 48 h
786-0 renal = system: 786-0 renal
CCRF-CEM leukemia = system: CCRF-CEM leukemia
HCC-2998 colon = system: HCC-2998 colon
HCT-116 colon = system: HCT-116 colon
KM12 colon = system: KM12 colon
MDA-MB-231 breast = system: MDA-MB-231 breast
NCI-H226 lung = system: NCI-H226 lung
SNB-75 CNS = system: SNB-75 CNS
UACC-257 melanoma = system: UACC-257 melanoma
UACC-62 melanoma = system: UACC-62 melanoma

SMILES | GI50 (786-0 renal) [µM] | TGI (786-0 renal) [µM] | GI50 (CCRF-CEM leukemia) [µM] | TGI (CCRF-CEM leukemia) [µM] | GI50 (HCC-2998 colon) [µM] | TGI (HCC-2998 colon) [µM] | GI50 (HCT-116 colon) [µM] | TGI (HCT-116 colon) [µM] | GI50 (KM12 colon) [µM] | TGI (KM12 colon) [µM] | GI50 (MDA-MB-231 breast) [µM] | TGI (MDA-MB-231 breast) | GI50 (NCI-H226 lung) [µM] | TGI (NCI-H226 lung) [µM] | GI50 (SNB-75 CNS) [µM] | TGI (SNB-75 CNS) [µM] | GI50 (UACC-257 melanoma) [µM] | TGI (UACC-257 melanoma) [µM] | GI50 (UACC-62 melanoma) [µM] | TGI (UACC-62 melanoma)
CC(C)[C@@]12C[C@@H](OC(=O)C3CO3)[C@@](C)(O1)[C@@H]1CC[C@@H](C)[C@H]1[C@@H]2OC(=O)/C=C/c1ccccc1 (stereo partly specified) | 14 | 29.5 | 29 | > 100 | 18.7 | 35.8 | 23.8 | > 100 | 18.7 | 38.1 | 13.3 | 31.2 µM | 13.5 | 29.3 | 10.8 | 30.9 | 19.2 | 39.4 | 14.9 | 34.4 µM
OCc1ccc(-c2nc(-c3ccc4c(c3)OCO4)c(-c3ccccn3)[nH]2)cc1 | > 25 | > 25 | > 25 | > 25 | > 25 | > 25 | > 25 | > 25 | > 25 | > 25 | 10.2 | > 25 µM | > 25 | > 25 | > 7.04 | > 25 | > 25 | > 25 | > 25 | > 25 µM
CC1(C)C(=O)/C=C\C(=O)C(C)(C)C2=CC=C(O2)C(C)(C)C(=O)C(Br)C(Br)C(=O)C(C)(C)C2=CC=C1O2 (stereo unspecified) |  | > 100 |  | 11.2 |  | > 100 |  | 65.6 |  | > 100 |  | > 86.7 µM |  | > 100 |  | > 80.3 |  | > 100 |  | 49.3 µM
CC[C@]12CN3CCc4c([nH]c5ccccc45)[C@@](C(=O)OC)(c4cc5c(cc4OC)N(C)[C@H]4[C@@](O)(C(=O)OC)[C@H](OC(C)=O)[C@]6(CC)C=CCN7CC[C@]54[C@@H]76)CC(C3)[C@H]1O2 (stereo partly specified) | 1.3 | > 100 | 0.116 | > 50 | 0.226 |  | 0.147 | > 100 | 0.105 |  |  | 7.02 µM and > 11 µM | 0.462 | > 50 |  | > 100 | 0.161 | > 100 | 0.224 | 76.9 µM and > 50 µM
Cn1cnc([N+](=O)[O-])c1S(=O)(=O)Oc1ccc(Cl)cc1 | 17 | 33 | 2.33 | 7.05 | 15.9 | 30.2 | 8.59 | 21.8 | 23 | 91.4 | 2.8 | 5.99 µM | 18.6 | 58 | 14.1 | 29.7 | 3.59 | 16.6 | 13.2 | 29.1 µM
COc1cc2c3c(n(CCCN=[N+]=[N-])c(=O)c2cc1OC)-c1ccc(F)cc1C3=O | 2.88 | 14.7 | 1.99 | 5.79 | 16.3 | > 100 | 4.2 | > 100 | 41.2 | > 100 | > 100 | > 100 µM | 43.2 | > 100 | 21.1 | 90.2 | > 100 | > 100 | 5.27 | > 100 µM
COc1cccc(S(=O)(=O)NC2=NCCN2C(=S)SN2CCn3c2nsc3=S)c1 | 31.6 | > 100 | 32.1 | > 100 | 41.5 | > 100 | 16.4 | 33 | 30.5 | 80.1 | 28.1 | 96 µM | 30.9 | > 100 | 30 | 89.6 | 31.5 | 86.2 | 28.6 | > 100 µM
CCOc1ccccc1/C=N\N=C(N/N=C/c1ccccc1OCC)N/N=C/c1ccccc1OCC | 2.71 | > 100 | 3.21 | > 100 | 0.826 | > 100 | 0.763 | > 100 | 1.72 | > 100 | 1.73 | 7.52 µM | 2.74 | > 100 | 2.2 | > 100 | 3.12 | > 100 | 2.05 | > 100 µM
COc1ccc(-c2cnc(-c3ccc(OC)cc3)n2-c2cc(OC)c(OC)c(OC)c2)cc1 | 24.2 | 61.4 | > 100 | > 100 | 45.7 | > 100 | 30.9 | > 100 | 34.9 | > 100 | 18.4 | 74.3 µM | 36.7 | > 100 | 12.6 | 30.1 | 22.9 | 85.9 | 17.3 | 45 µM
COc1cc2c(cc1OC)[C@@H]1C(=O)c3ccc4c(c3O[C@@H]1CO2)C[C@H](C(C)C)O4 | 5.6 | > 79.8 | 5.41 | > 100 | 4.09 | > 61.6 | 0.0435 | > 37.8 | 5.31 | 26.1 | 21.6 | > 100 µM | 8.89 | > 100 | 4.39 | 23.8 | 4.19 | > 57.7 | 9.24 | > 100 µM

— PubChem BioAssay (NCI)
